Assay results from US20230203081A1, “LINCOSAMIDE ANTIBIOTICS AND USES THEREOF” (President and Fellows of Harvard College, priority 2020, published 2023).
Converted amounts (≈) assume the structure as drawn.

How the values were obtained:
Type in all cases: cell-based
E. faecalis ATCC 29212 = assay: MIC (broth microdilution or agar dilution, CLSI); details: Enterococcus faecalis, ATCC29212, E. faecalis HAV#005, ATCC 29212; read-out: MIC
Summary of the method: (§1)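 Isolates other than streptococci and anaerobes, which had their own procedures, were grown overnight at 35° C on tryptic soy agar with 5% sheep blood. Suspensions were then diluted to a final inoculum of 5×10^5 CFU/mL in broth microdilution wells.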

S. pneumoniae ATCC 49619 = assay: MIC (broth microdilution or agar dilution, CLSI); details: Streptococcus pneumoniae, ATCC49619
Summary of the method: as §1

K. pneumoniae ATCC 10031 = assay: MIC (broth microdilution or agar dilution, CLSI); details: Klebsiella pneumoniae, ATCC10031, K. pneumoniae HAV#008, ATCC 10031; read-out: MIC
Summary of the method: as §1

S. pyogenes ATCC 19615 = assay: MIC (broth microdilution or agar dilution, CLSI); details: Streptococcus pyogenes, ATCC19615, S. pyogenes HAV#004, ATCC 19615; read-out: MIC
Summary of the method: as §1

E. coli LptD = assay: MIC (broth microdilution or agar dilution, CLSI); details: Escherichia coli, E. coli HAV#040; LptD; read-out: MIC
Summary of the method: as §1

S. aureus hVISA = assay: MIC (broth microdilution or agar dilution, CLSI); details: Staphylococcus aureus; S. aureus HAV#204, hVISA; read-out: MIC
Summary of the method: as §1

S. pneumoniae ATCC 6303 = assay: MIC (broth microdilution or agar dilution, CLSI); details: Streptococcus pneumoniae, ATCC6303; S. pneumoniae HAV#351, ATCC 6303; read-out: MIC
Summary of the method: as §1

S. aureus ATCC 700699 = assay: MIC (broth microdilution or agar dilution, CLSI); details: Staphylococcus aureus; S. aureus HAV#202, ATCC 700699 (VISA); read-out: MIC
Summary of the method: as §1

[1] = system: S. pneumoniae MMX 3028 cErmB; assay: MIC (broth microdilution or agar dilution, CLSI); details: Streptococcus pneumoniae, MMX3028CERMB; S. pneumoniae HAV#033; MMX 3028, cErmB; read-out: MIC
Summary of the method: as §1

[2] = system: S. aureus ATCC BAA-1707 (MRSA); assay: MIC (broth microdilution or agar dilution, CLSI); details: Staphylococcus aureus; S. aureus HAV#016, ATCC BAA-1707; MRSA; read-out: MIC
Summary of the method: as §1

[3] = system: S. pyogenes MMX 946; cErmB; assay: MIC (broth microdilution or agar dilution, CLSI); details: Streptococcus pyogenes; S. pyogenes HAV#035, MMX 946; cErmB, mac-resistant; read-out: MIC
Summary of the method: as §1

[4] = system: S. pneumoniae MMX 3031 cMefA; assay: MIC (broth microdilution or agar dilution, CLSI); details: Streptococcus pneumoniae, MMX3031CMEFA, S. pneumoniae HAV#034; MMX 3031, cMefA; read-out: MIC
Summary of the method: as §1

K. oxytoca Clinical = assay: MIC (broth microdilution or agar dilution, CLSI); details: Klebsiella oxytoca; K. oxytoca HAV#450; Clinical; read-out: MIC
Summary of the method: as §1

S. aureus ATCC 29213 = assay: MIC (broth microdilution or agar dilution, CLSI); details: Staphylococcus aureus, ATCC29213, S. aureus HAV#001, ATCC 29213, MP-549; read-out: MIC
Summary of the method: as §1

S. aureus MP-549 msrA = assay: microbe, parasite or virus in culture; details: Staphylococcus aureus, MP549MSRA; S. aureus HAV#032, MP-549; MSR(A); read-out: MIC
Summary of the method: as §1

E. coli armA = assay: microbe, parasite or virus in culture; details: Escherichia coli, E. coli HAV#056; Clinical, armA
Summary of the method: as §1

E. coli ΔTolC = assay: microbe, parasite or virus in culture; details: Escherichia coli, E. coli HAV#038; ΔTolC
Summary of the method: as §1

[5] = system: broad panel of different clinical isolates; assay: microbe, parasite or virus in culture
Summary of the method: as §1

S. aureus BAA 977 iErmA = assay: microbe, parasite or virus in culture; details: Staphylococcus aureus, BAA-977 / MRSA
Summary of the method: as §1

For `CC[C@H]1OC(=O)[C@H](C)[C@@H](O[C@H]2C[C@@](C)(OC)[C@@H](O)[C@H](C)O2)[C@H](C)[C@@H](O[C@@H]2O[C@H](C)C[C@H](N(C)C)[C@H]2O)[C@](C)(O)C[C@@H](C)CN(C)[C@H](C)[C@@H](O)[C@]1(C)O` [Azithromycin], the MIC (E. faecalis ATCC 29212) was 8 mg/L (≈ 10.7 µM), the MIC (S. pneumoniae ATCC 49619) was 0.125 mg/L (≈ 0.167 µM) and the MIC (K. pneumoniae ATCC 10031) was 4 mg/L (≈ 5.34 µM). For the same compound, the MIC (S. pyogenes ATCC 19615) was 0.06 mg/L (≈ 0.0801 µM), the MIC (E. coli LptD) was ≤ 0.03 mg/L and the MIC (S. aureus hVISA) was > 64 mg/L. The MIC (S. pneumoniae ATCC 6303) was 2 mg/L (≈ 2.67 µM), the MIC (S. aureus ATCC 700699) was > 64 mg/L and the MIC [1] was > 64 mg/L. The MIC [2] was 1 mg/L (≈ 1.34 µM), the MIC [3] was > 64 mg/L and the MIC [4] was 16 mg/L (≈ 21.4 µM). For the same compound, the MIC (K. oxytoca Clinical) was 16 mg/L (≈ 21.4 µM), the MIC (S. aureus ATCC 29213) was 1 mg/L (≈ 1.34 µM) and the MIC (S. aureus MP-549 msrA) was > 64 mg/L. It also gave an MIC (E. coli armA) of 4 mg/L (≈ 5.34 µM), an MIC (E. coli ΔTolC) of 1 mg/L (≈ 1.34 µM) and an MIC ([5]; Enterococcus faecalis, E. faecalis HAV#602, Clincal) of 4 mg/L (≈ 5.34 µM). The MIC ([5]; Enterococcus faecalis, E. faecalis HAV#607, Clinical) was > 128 mg/L, the MIC ([5]; Enterococcus faecalis, E. faecalis HAV#608, Clinical) was > 128 mg/L and the MIC ([5]; Enterococcus faecalis, E. faecalis HAV#609, Clinical) was > 128 mg/L. For the same compound, the MIC ([5]; Enterococcus faecalis, E. faecalis HAV#610, Clinical) was > 128 mg/L, the MIC ([5]; Enterococcus faecalis, S. faecalis 5060, Line R & Vanco R) was > 256 mg/L and the MIC ([5]; Enterococcus faecalis, S. faecalis 5074, Line R) was 4 mg/L (≈ 5.34 µM). The MIC ([5]; Enterococcus faecalis, VRE, E. faecalis HAV#251, Clinical VRE) was > 64 mg/L, the MIC ([5]; Enterococcus faecalis, VRE, E. faecalis HAV#606, Clinical) was > 128 mg/L and the MIC ([5]; Enterococcus faecium, E. faecium HAV#317, Clinical) was 8 mg/L (≈ 10.7 µM). For the same compound, the MIC ([5]; Enterococcus faecium, E. faecium HAV#324, Clinical) was > 128 mg/L, the MIC ([5]; Enterococcus faecium, E. faecium HAV#327, Clinical) was > 128 mg/L and the MIC ([5]; Enterococcus faecium, E. faecium HAV#328, Clinical) was > 128 mg/L. For the same compound, the MIC ([5]; Enterococcus faecium, E. faecium HAV#329, Clinical) was > 128 mg/L, the MIC ([5]; Enterococcus faecium, VRE, E. faecium HAV#318, VanA) was > 64 mg/L and the MIC ([5]; Enterococcus faecium, VRE, E. faecium HAV#320, Clinical) was > 128 mg/L. It also gave an MIC ([5]; Escherichia coli, E. coli HAV#501, Clinical) of 64 mg/L (≈ 85.4 µM), an MIC ([5]; Escherichia coli, E. coli HAV#503, Clinical) of 8 mg/L (≈ 10.7 µM) and an MIC ([5]; Escherichia coli, E. coli HAV#511, Clinical) of 4 mg/L (≈ 5.34 µM). The MIC ([5]; Escherichia coli, E. coli HAV#512, Clinical) was 8 mg/L (≈ 10.7 µM), the MIC ([5]; Escherichia coli, E. coli HAV#513, Clinical) was 8 mg/L (≈ 10.7 µM) and the MIC ([5]; Escherichia coli, E. coli HAV#514, Clinical) was 8 mg/L (≈ 10.7 µM). The MIC ([5]; Escherichia coli, E. coli HAV#516, ESBL-producing) was 4 mg/L (≈ 5.34 µM), the MIC ([5]; Haemophilus influenzae, ATCC9007, H. influenzae HAV#376, ATCC-9007) was 2 mg/L (≈ 2.67 µM) and the MIC ([5]; Klebsiella pneumoniae, K. pneumoniae HAV#041, Clinical, KPC) was > 64 mg/L. The MIC ([5]; Klebsiella pneumoniae, K. pneumoniae HAV#404, Clinical) was 8 mg/L (≈ 10.7 µM), the MIC ([5]; Klebsiella pneumoniae, K. pneumoniae HAV#405, Clinical) was 8 mg/L (≈ 10.7 µM) and the MIC ([5]; Staphylococcus aureus, MRSA, S. aureus HAV#017, MRSA Col(Colindale, England)) was 1 mg/L (≈ 1.34 µM). For the same compound, the MIC ([5]; Staphylococcus aureus, MRSA, S. aureus HAV#218, Line R) was > 64 mg/L, the MIC ([5]; Staphylococcus aureus, MRSA, S. aureus HAV#220, Line R) was > 64 mg/L and the MIC ([5]; Staphylococcus aureus, MSSA, S. aureus HAV#219, Line R) was > 64 mg/L. It also gave an MIC ([5]; Staphylococcus aureus, S. aureus HAV#051, mecA, norA, spcl, ermA, aad1, aac6′-aph2″) of 2 mg/L (≈ 2.67 µM), an MIC ([5]; Staphylococcus aureus, S. aureus HAV#052, mecA, norA, fosB, blaZ) of 2 mg/L (≈ 2.67 µM) and an MIC ([5]; Staphylococcus aureus, S. aureus HAV#053 mecA, norA, fosB) of 2 mg/L (≈ 2.67 µM). The MIC ([5]; Staphylococcus aureus, S. aureus HAV#054, mecA, norA, spcl, aad1, fosB, ermA, aac6′-aph2″, blaZ) was > 256 mg/L, the MIC ([5]; Staphylococcus aureus, S. aureus HAV#211, Clinical) was > 64 mg/L and the MIC ([5]; Staphylococcus aureus, S. aureus HAV#212, Clinical) was 1 mg/L (≈ 1.34 µM). It also gave an MIC ([5]; Staphylococcus aureus, S. aureus HAV#213, Clinical) of 0.25 mg/L (≈ 0.334 µM), an MIC ([5]; Staphylococcus aureus, S. aureus HAV#214, Clinical) of 0.25 mg/L (≈ 0.334 µM) and an MIC ([5]; Staphylococcus aureus, S. aureus HAV#215, Clinical) of 0.25 mg/L (≈ 0.334 µM). For the same compound, the MIC ([5]; Staphylococcus aureus, S. aureus HAV#216, Clinical, cfr) was > 128 mg/L, the MIC ([5]; Staphylococcus aureus, S. aureus HAV#217, cfr) was > 128 mg/L and the MIC ([5]; Staphylococcus aureus, VISA, S. aureus HAV#203, Clinical (VISA)) was > 64 mg/L. The MIC ([5]; Staphylococcus epidermidis, S. epidermidis HAV# 275 Clinical, cfr) was 32 mg/L (≈ 42.7 µM), the MIC ([5]; Staphylococcus epidermidis, S. epidermidis HAV# 276, cfr) was > 64 mg/L and the MIC ([5]; Staphylococcus epidermidis, S. epidermidis HAV#277, Line R) was > 64 mg/L. For the same compound, the MIC ([5]; Staphylococcus epidermidis, S. epidermidis HAV#278 Line R) was > 64 mg/L, the MIC ([5]; Staphylococcus epidermidis, S. epidermidis HAV#279, Line R) was > 64 mg/L and the MIC ([5]; Staphylococcus haemolyticus, S. haemolyticus 5052, Line R & Methicillin R) was > 256 mg/L. For the same compound, the MIC ([5]; Streptococcus pneumoniae, ATCC700673, S. pneumoniae HAV#352, ATCC 700673, MDR) was > 64 mg/L, the MIC ([5]; Streptococcus pneumoniae, ATCCBAA255, S. pneumoniae HAV#354, ATCC-BAA-255) was 2 mg/L (≈ 2.67 µM) and the MIC ([5]; Streptococcus pneumoniae, ATCCBAA334, S. pneumoniae HAV#353, ATCC-BAA-334) was 1 mg/L (≈ 1.34 µM). The MIC ([5]; Streptococcus pneumoniae, S. pneumoniae HAV#356, Clinical) was > 64 mg/L, the MIC ([5]; Streptococcus pneumoniae, S. pneumoniae HAV#358, Clinical) was 2 mg/L (≈ 2.67 µM) and the MIC (S. aureus BAA 977 iErmA) was > 64 mg/L.
